Measurements as given in patent US11174253B2, “Compound and pharmaceutical composition containing the same” (ALPHALA CO., LTD., priority 2017, dated 2021).

Tested on: hepatocellular carcinoma cell line Hep3B
Test: Growth inhibition of Hep3B cells, 48 hr treatment, Hoechst 33342 nucleus count (GE InCell 2200)
Format: cell-based
Conditions: Homo sapiens
In short: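 Compound exposure lasted 48 hr at 37° C, 5% CO2. Surviving nuclei were counted after Hoechst 33342 staining, and survival was expressed as the treated/non-treated cell number ratio, including the ratio at 10 μM compound.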

[1] = Table 5, ratio of number of tumor cells treated with 10 μM compound to non-treated cells
[2] = Table 1, ratio of number of tumor cells treated with 10 μM compound to non-treated cells

| Structure (SMILES) | viability at 10 µM [1] [%] | further results |
| --- | --- | --- |
| CC(C)(C)c1ccc(Oc2sc(NC(=O)c3ccc([N+](=O)[O-])s3)nc2-c2ccc(F)cc2)cc1 [Compound 5-64, N-(5-(4-(tert-butyl)phenoxy)-4-(4-fluorophenyl)thiazol-2-yl)-5-nitrothiophene-2-carboxamide] | 54 | – |
| CCCOc1ccc(-c2nc(NC(=O)c3ccc([N+](=O)[O-])o3)sc2Oc2ccc(F)cc2)cc1 [Compound 5-49, N-(5-(4-fluorophenoxy)-4-(4-propoxyphenyl)thiazol-2-yl)-5-nitrofuran-2-carboxamide] | 41 | – |
| CCCc1ccc(-c2nnc(NC(=O)Cc3ccc4nc(N)sc4c3)s2)cc1 [Compound 1-33, 2-(2-aminobenzo[d]thiazol-6-yl)-N-(5-(4-propylphenyl)-1,3,4-thiadiazol-2-yl)acetamide] | – | viability at 10 µM [2]: 44% |
| CCc1ccc(-c2nc(NC(=O)c3ccc([N+](=O)[O-])s3)sc2Oc2ccc(C(C)(C)CC)cc2)cc1 [Compound 5-103, N-(4-(4-ethylphenyl)-5-(4-(tert-pentyl)phenoxy)thiazol-2-yl)-5-nitrothiophene-2-carboxamide] | 33 | – |
| CCC(C)(C)c1ccc(Oc2sc(NC(=O)c3ccc([N+](=O)[O-])s3)nc2-c2ccc(C(C)(C)C)cc2)cc1 [Compound 5-101, N-(4-(4-(tert-butyl)phenyl)-5-(4-(tert-pentyl)phenoxy)thiazol-2-yl)-5-nitrothiophene-2-carboxamide] | 48 | – |
| CCOc1ccc(-c2ccc(NC(=O)Cc3ccc4nc(N)sc4c3)s2)cc1 [Compound 4-2, 2-(2-aminobenzo[d]thiazol-6-yl)-N-(5-(4-ethoxyphenyl)thiophen-2-yl)acetamide] | – | viability at 10 µM (Table 4, ratio of number of tumor cells treated with 10 μM compound to non-treated cells): 89% |
| CCCOc1ccc(-c2nc(NC(=O)Cc3ccc4nc(N)sc4c3)sc2-c2ccc(F)cc2)cc1 [Compound 3-6, 2-(2-aminobenzo[d]thiazol-6-yl)-N-(5-(4-fluorophenyl)-4-(4-propoxyphenyl)thiazol-2-yl)acetamide] | – | viability at 10 µM (Table 3, ratio of number of tumor cells treated with 10 μM compound to non-treated cells): 83% |
| O=C(Nc1nc(-c2ccc(Br)cc2)cs1)c1ccc([N+](=O)[O-])s1 [Compound 6-7, N-(4-(4-bromophenyl)thiazol-2-yl)-5-nitrothiophene-2-carboxamide] | – | viability at 10 µM (Table 6, ratio of number of tumor cells treated with 10 μM compound to non-treated cells): 81% |
| CCCOc1ccc(-c2nc(NC(=O)c3ccc([N+](=O)[O-])s3)sc2Oc2cc(F)cc(F)c2)cc1 [Compound 5-50, N-(5-(3,5-difluorophenoxy)-4-(4-propoxyphenyl)thiazol-2-yl)-5-nitrothiophene-2-carboxamide] | 42 | – |
| CCc1ccc(-c2nc(NC(=O)c3ccc([N+](=O)[O-])s3)sc2Oc2ccc(C(C)(C)C)cc2)cc1 [Compound 5-102, N-(5-(4-(tert-butyl)phenoxy)-4-(4-ethylphenyl)thiazol-2-yl)-5-nitrothiophene-2-carboxamide] | 40 | – |
| CCCCOc1ccc(-c2nc(NC(=O)c3ccc([N+](=O)[O-])s3)sc2Oc2ccc(F)cc2)cc1 [Compound 5-73, N-(4-(4-butoxyphenyl)-5-(4-fluorophenoxy)thiazol-2-yl)-5-nitrothiophene-2-carboxamide] | 49 | – |
| CCCCc1ccc(-c2nc(NC(=O)c3ccc([N+](=O)[O-])s3)sc2Oc2ccc(F)cc2)cc1 [Compound 5-94, N-(4-(4-butylphenyl)-5-(4-fluorophenoxy)thiazol-2-yl)-5-nitrothiophene-2-carboxamide] | 32 | – |
| CCCCOc1ccc(-c2nc(NC(=O)c3ccc([N+](=O)[O-])s3)sc2Oc2ccccc2F)cc1 [Compound 5-72, N-(4-(4-butoxyphenyl)-5-(2-fluorophenoxy)thiazol-2-yl)-5-nitrothiophene-2-carboxamide] | 43 | – |
| CN(C)c1ccc(-c2nnc(NC(=O)Cc3ccc4nc(N)sc4c3)s2)cc1 [Compound 1-9, 2-(2-aminobenzo[d]thiazol-6-yl)-N-(5-(4-(dimethylamino)phenyl)-1,3,4-thiadiazol-2-yl)acetamide] | – | viability at 10 µM [2]: 60% |
